Laboratory results as given in the NIST ThermoML archive (doi:10.1016/j.jct.2005.02.014).
± gives the expanded uncertainty stated by the source.

Assay: molar heat capacity at constant pressure
Conditions: 101.33 kPa, Crystal

[Gd+3].[Gd+3].[O-2].[O-2].[O-2] [gadolinium sesquioxide]
Conditions	molar heat capacity at constant pressure [J/K/mol]
5.34 K	4.24 ± 0.1
5.84 K	5.88 ± 0.13
6.65 K	6.66 ± 0.13
8.48 K	4.7 ± 0.098
10.16 K	3.95 ± 0.081
11.17 K	3.51 ± 0.073
11.58 K	3.33 ± 0.07
13.24 K	3.19 ± 0.065
13.72 K	3.18 ± 0.064
14.69 K	3.17 ± 0.063
15.56 K	3.2 ± 0.062
15.84 K	3.18 ± 0.062
16.98 K	3.47 ± 0.064
17.06 K	3.5 ± 0.064
18.14 K	3.76 ± 0.066
18.46 K	3.8 ± 0.066
19.29 K	4.28 ± 0.07
19.86 K	4.28 ± 0.068
20 K	4.32 ± 0.069
20.63 K	4.51 ± 0.07
21.24 K	4.73 ± 0.071
21.97 K	5.08 ± 0.073
22.65 K	5.27 ± 0.073
23.31 K	5.65 ± 0.076
23.91 K	5.87 ± 0.076
24.66 K	6.36 ± 0.079
25 K	6.55 ± 0.08
25.22 K	6.67 ± 0.081
26.02 K	7.26 ± 0.082
26.08 K	7.21 ± 0.082
26.79 K	7.55 ± 0.082
27.33 K	7.65 ± 0.081
27.99 K	7.92 ± 0.081
28.5 K	8.29 ± 0.082
29.64 K	8.93 ± 0.083
30 K	9.163 ± 0.12
31.19 K	9.927 ± 0.12
32.73 K	10.96 ± 0.12
34.3 K	11.95 ± 0.12
35 K	12.42 ± 0.13
35.9 K	13.02 ± 0.13
37.53 K	13.85 ± 0.13
39.19 K	14.85 ± 0.14
40 K	15.35 ± 0.14
40.87 K	15.9 ± 0.14
42.55 K	17.06 ± 0.15
44.25 K	18.21 ± 0.15
45 K	18.7 ± 0.16
45.96 K	19.33 ± 0.16
47.7 K	20.45 ± 0.17
49.45 K	21.55 ± 0.17
50 K	21.9 ± 0.17
51.21 K	22.67 ± 0.17
52.99 K	23.75 ± 0.17
54.78 K	24.86 ± 0.18
56.58 K	26 ± 0.18
58.39 K	27.1 ± 0.19
60 K	28.03 ± 0.19
60.22 K	28.16 ± 0.19
62.05 K	29.26 ± 0.2
63.89 K	30.33 ± 0.2
65.75 K	31.37 ± 0.21
67.61 K	32.46 ± 0.21
69.47 K	33.54 ± 0.22
70 K	33.85 ± 0.22
71.35 K	34.62 ± 0.22
73.23 K	35.69 ± 0.22
75.12 K	36.68 ± 0.22
77.01 K	37.74 ± 0.23
78.91 K	38.79 ± 0.23
80 K	39.37 ± 0.24
80.81 K	39.79 ± 0.24
82.72 K	40.83 ± 0.24
83.39 K	41.24 ± 0.24
84.63 K	41.9 ± 0.25
85.99 K	42.64 ± 0.25
86.55 K	42.9 ± 0.25
88.47 K	43.84 ± 0.26
88.8 K	44.12 ± 0.26
90 K	44.63 ± 0.49
90.39 K	44.82 ± 0.49
91.62 K	45.57 ± 0.49
92.32 K	45.88 ± 0.49
93.14 K	46.35 ± 0.49
93.67 K	46.53 ± 0.49
94.25 K	46.87 ± 0.49
94.44 K	46.97 ± 0.49
94.91 K	47.23 ± 0.49
96.18 K	47.87 ± 0.5
96.86 K	48.18 ± 0.5
97.27 K	48.4 ± 0.5
98.12 K	48.9 ± 0.5
98.79 K	49.39 ± 0.5
100 K	50.12 ± 0.5
100.06 K	50.15 ± 0.5
100.11 K	50.21 ± 0.5
100.72 K	50.42 ± 0.5
102.65 K	51.08 ± 0.5
102.97 K	51.17 ± 0.5
104.58 K	51.98 ± 0.51
105.83 K	52.6 ± 0.51
106.52 K	53 ± 0.51
108.46 K	54.02 ± 0.51
108.7 K	54.13 ± 0.51
110.4 K	54.87 ± 0.51
111.58 K	55.27 ± 0.51
112.35 K	55.75 ± 0.52
114.3 K	56.56 ± 0.52
114.46 K	56.66 ± 0.52
116.25 K	57.42 ± 0.52
117.35 K	57.9 ± 0.52
118.2 K	58.29 ± 0.52
120 K	58.58 ± 0.52
120.15 K	58.66 ± 0.52
120.24 K	58.72 ± 0.52
122.11 K	59.91 ± 0.52
123.15 K	60.56 ± 0.52
124.07 K	60.93 ± 0.52
126.02 K	61.79 ± 0.52
126.04 K	61.82 ± 0.52
127.98 K	62.72 ± 0.52
128.94 K	63.08 ± 0.52
129.95 K	63.54 ± 0.52
131.83 K	64.33 ± 0.53
131.91 K	64.31 ± 0.53
133.87 K	65.17 ± 0.53
134.73 K	65.5 ± 0.53
135.84 K	65.98 ± 0.53
137.64 K	66.69 ± 0.53
137.81 K	66.76 ± 0.53
139.77 K	67.58 ± 0.53
140 K	67.66 ± 0.53
140.55 K	67.86 ± 0.53
141.74 K	68.33 ± 0.54
143.47 K	69 ± 0.54
143.71 K	69.08 ± 0.54
145.68 K	69.88 ± 0.54
146.39 K	70.15 ± 0.54
147.65 K	70.61 ± 0.54
149.31 K	71.26 ± 0.54
149.62 K	71.38 ± 0.54
151.6 K	72.1 ± 0.54
152.23 K	72.33 ± 0.55
153.57 K	72.82 ± 0.55
155.16 K	73.39 ± 0.55
155.55 K	73.55 ± 0.55
157.52 K	74.24 ± 0.55
158.09 K	74.43 ± 0.55
159.5 K	74.94 ± 0.55
160 K	75.12 ± 0.55
161.02 K	75.46 ± 0.55
161.47 K	75.6 ± 0.55
163.45 K	76.3 ± 0.55
163.95 K	76.42 ± 0.55
165.43 K	76.95 ± 0.56
166.88 K	77.42 ± 0.56
167.41 K	77.62 ± 0.56
169.38 K	78.25 ± 0.56
169.82 K	78.4 ± 0.56
171.36 K	78.94 ± 0.56
172.76 K	79.32 ± 0.56
173.34 K	79.5 ± 0.56
175.32 K	80.12 ± 0.56
175.7 K	80.25 ± 0.56
